From publication PMC2765047 (Journal of medicinal chemistry, 2009)
Read-outs that look alike come from different tables or passages of the source.

Columns and labels:
HCMV Towne = experiment: HCMV plaque reduction assay, Towne strain, in HFF cells; format: cell-based, human cytomegalovirus (HCMV); settings: Human betaherpesvirus 5, HFF, read-out: EC50 Virus Strain Towne
[1] = Visual cytotoxicity in uninfected HFF's used in plaque reduction assays; format: cell-based; settings: human
in vitro = format: cell-based; settings: human
HSV-2 = HSV-2 antiviral assay; format: cell-based, herpes simplex virus 2; settings: human foreskin fibroblast (HFF) culture
HSV-1 = HSV-1 antiviral assay; format: cell-based, herpes simplex virus 1; settings: human foreskin fibroblast (HFF) culture
[2] = Cytotoxicity by neutral red uptake; format: cell-based; settings: human
HCMV = settings: ref [1]; cited from earlier work
ADA from calf intestine = target: T1, ADA from calf intestine (Bos taurus, UniProt P56658); experiment: Adenosine deaminase; format: biochemical
T1 sequence (P56658 1-363): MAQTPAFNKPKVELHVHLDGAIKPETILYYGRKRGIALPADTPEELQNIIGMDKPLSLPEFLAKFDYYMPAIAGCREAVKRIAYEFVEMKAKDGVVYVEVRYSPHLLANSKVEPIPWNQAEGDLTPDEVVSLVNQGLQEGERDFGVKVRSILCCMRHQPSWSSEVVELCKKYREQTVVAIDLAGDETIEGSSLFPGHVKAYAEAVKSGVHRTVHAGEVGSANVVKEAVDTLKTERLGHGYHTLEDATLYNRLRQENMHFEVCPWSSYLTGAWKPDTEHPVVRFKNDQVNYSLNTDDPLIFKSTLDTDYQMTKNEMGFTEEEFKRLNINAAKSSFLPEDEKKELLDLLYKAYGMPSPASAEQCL

HFF cells [3] = settings: read-out: CC50 HCMV/HFF AD169; cytotoxicity by neutral red uptake; ref [2]; cited from earlier work
HFF cells [4] = settings: read-out: CC50 HCMV/HFF Towne; visual cytotoxicity in uninfected HFF's; ref [2]; cited from earlier work
Akata cells = settings: read-out: CC50 EBV/Akata, ref [28]; cited from earlier work

Compound | CC50 [1] | CC50 [2] | other results
Nc1nc2c(ncn2COC(CO)CO)c(=O)[nH]1 [Ganciclovir, ganciclovir] |  |  | EC50 (HCMV Towne): 2 µM
Nc1ncnc2c1ncn2/C=C1\C[C@H]1[C@H](O)CO [ent-15a] | > 100 µM |  | 
Nc1ncnc2c1ncn2/C=C1\C[C@H]1[C@@H](O)CO [ent-13a] | > 100 µM |  | 
Nc1nc2c(ncn2/C=C2/C[C@H]2[C@@H](O)CO)c(=O)[nH]1 [ent-12b] |  |  | CC50 (in vitro): 284 µM; activity against HSV-2 (in words) (HSV-2): inactive; activity against HSV-1 (in words) (HSV-1): inactive
Nc1nc2c(ncn2/C=C2/C[C@H]2[C@H](O)CO)c(=O)[nH]1 [ent-14b] | > 300 µM | > 300 µM | 
Nc1c2ncnc-2ncn1/C=C1\CC1CO (centres unmarked) [Compound 1a, synadenol] |  |  | activity against HCMV (in words) (HCMV): effective
Nc1ncnc2c1ncn2/C=C1/C[C@@H]1[C@H](O)CO [Compound 12a] | > 100 µM | > 300 µM | 
Nc1nc2c(ncn2/C=C2\C[C@H]2[C@@H](O)CO)c(=O)[nH]1 [ent-13b] | > 100 µM |  | 
Nc1nc(O)c2ncn(/C=C3/CC3CO)c2n1 (centres unmarked) [Compound 1b] |  |  | activity against HCMV (in words) (HCMV): highly effective
Nc1ncnc2c1ncn2/C=C1/C[C@H]1[C@H](O)CO [ent-14a] | > 100 µM |  | substrate activity toward ADA (in words) (ADA from calf intestine): resistant to deamination
Nc1nc2c(ncn2/C=C2\C[C@@H]2[C@@H](O)CO)c(=O)[nH]1 [Compound 15b] | > 100 µM | > 300 µM | 
Nc1ncnc2c1ncn2/C=C1\C[C@@H]1[C@@H](O)CO [Compound 15a] | > 100 µM | > 300 µM | 
Nc1nc2c(ncn2/C=C2/C[C@@H]2[C@H](O)CO)c(=O)[nH]1 [Compound 12b, (+)-9-{(Z)-{(S)-2-[(S)-1,2-Dihydroxyethyl)cyclopropylidene]methyl}guanine] | > 100 µM | > 300 µM | 
Nc1nc2c(ncn2/C=C2\C[C@@H]2[C@H](O)CO)c(=O)[nH]1 [Compound 13b] | > 100 µM |  | 
Nc1ncnc2c1ncn2/C=C1\C[C@@H]1[C@H](O)CO [Compound 13a] |  | > 300 µM | 
Nc1ncnc2c1ncn2C=C1CC1(CO)CO [Compound 3a] |  |  | activity against HCMV (in words) (HCMV): effective
Nc1nc2c(ncn2/C=C2/CC2(CO)CO)c(=O)[nH]1 [Compound 3b, cyclopropavir] |  |  | activity against HCMV (in words) (HCMV): highly effective; CC50 (HFF cells [3]): > 100 µM; EC50 (HCMV Towne): 0.6 µM; CC50 (HFF cells [4]): > 100 µM; CC50 (Akata cells): 46 µM
Nc1ncnc2c1ncn2/C=C1/C[C@@H]1[C@@H](O)CO [Compound 14a] | > 100 µM |  | 
Nc1nc2c(ncn2/C=C2/C[C@@H]2[C@@H](O)CO)c(=O)[nH]1 [Compound 14b] | > 100 µM | > 300 µM | 
Nc1ncnc2c1ncn2/C=C1/C[C@H]1[C@@H](O)CO [ent-12a] | > 100 µM | 194 µM | substrate activity toward ADA (in words) (ADA from calf intestine): resistant to deamination
